Source: publication PMC6001238, “Iterative Chemical Engineering of Vancomycin Leads to Novel Vancomycin Analogs With a High in Vitro Therapeutic Index” (Frontiers in Microbiology, 2018)
Values after ≈ are worked out from the molar mass of the structure shown.

Tests used:
MRSA KS89 = assay: MIC, broth microdilution, MRSA KS89; format: cell-based, Staphylococcus aureus; conditions: for MIC-fold improvement vs. vancomycin: MRSA KS8, ratio of MIC of vancomycin and MIC of analogue; for MIC: Staphylococcus aureus MRSA KS8, read-out: MIC
Summary of the method: (§1)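 Inhibitory concentrations were read by the CLSI broth microdilution procedure, with water and sterile broth as controls. One experiment added vancomycin (10 μM final) together with each analogue or reference antibiotic.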

E. faecalis VSE 1 = assay: MIC, broth microdilution, vancomycin-sensitive E. faecalis (VSE 1); format: cell-based, Enterococcus faecalis; conditions: for MIC: Enterococcus faecalis VSE 1 (vancomycin-sensitive), read-out: MIC; for MIC-fold improvement vs. vancomycin: VSE 1, ratio of MIC of vancomycin and MIC of analogue
Summary of the method: as §1

[1] = test system: human cervix carcinoma (HeLa) cells; assay: Cytostatic activity, HeLa cell proliferation; format: cell-based; conditions: mean ± SD of three experiments; highest concentration tested 250 µM; 4 days; read-out: Toxicity (IC50) HeLa
Summary of the method: (§2)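 Test compounds, serially diluted, received an equal volume of cell suspension at 300,000–500,000 cells/mL. After 37°C incubation (2 days for L1210, 3 for CEM, 4 for HeLa), cells were enumerated by Coulter counting and 50%-inhibitory concentrations calculated per cell type.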

[2] = test system: Murine leukemia (L1210) cells; assay: Cytostatic activity, L1210 cell proliferation; format: cell-based; conditions: mean ± SD of three experiments; highest concentration tested 250 µM; 2 days; read-out: Toxicity (IC50) L1210
Summary of the method: as §2

E. faecalis VRE 37 = assay: MIC, broth microdilution, vancomycin-resistant E. faecalis VRE 37 (VanA); format: cell-based, Enterococcus faecalis; conditions: for MIC: Enterococcus faecalis VRE 37 (vancomycin-resistant), read-out: MIC; for MIC-fold improvement vs. vancomycin: VRE 37, ratio of MIC of vancomycin and MIC of analogue
Summary of the method: as §1

[3] = test system: Clostridium difficile AIU ribotype 027; assay: MIC, plate drop assay, C. difficile AIU ribotype 027; format: cell-based; conditions: for MIC-fold improvement vs. vancomycin: C. difficile AIU ribotype 027; for MIC: C. difficile AIU ribotype 027, plate drop assay
Protocol: (§3) Bacterial lawns of both C. difficile strains were prepared by adding 0.5 mL overnight culture to 8 mL sloppy BHI agar (0.4% agar) supplemented with 1.5 g/L CaCl2⋅2H2O and 81.2 g/L MgCl2⋅6H2O, and pouring the mixture into Petri plates. A twofold dilution series of the selected vancomycin analogs, vancomycin ([…]) and daptomycin (25 μM) was spotted (10 μL) on the bacterial lawn. Spots were air-dried and the plates were incubated overnight at 37°C in an anaerobic cabinet. Ultrapure water was included as negative control. The assay was performed in triplicate. Inhibition was observed by cleared spots.

S. aureus VRSA = assay: MIC, broth microdilution, vancomycin-resistant S. aureus (VRSA); format: cell-based, Staphylococcus aureus; conditions: for MIC: Staphylococcus aureus VRSA, read-out: MIC; for MIC-fold improvement vs. vancomycin: VRSA, ratio of MIC of vancomycin and MIC of analogue
Summary of the method: as §1

[4] = test system: L1210, CEM and HeLa cell lines; assay: Cytostatic activity, average or summary over L1210, CEM and HeLa; format: cell-based; conditions: average of L1210, CEM and HeLa; read-out: Toxicity (IC50) Average
Summary of the method: as §2

[5] = test system: Clostridium difficile ATJ ribotype 014/20; assay: MIC, plate drop assay, C. difficile ATJ ribotype 014/20; format: cell-based; conditions: for MIC-fold improvement vs. vancomycin: C. difficile ATJ ribotype 014/20; for MIC: C. difficile ATJ ribotype 014/20, plate drop assay
Protocol: as §3

[6] = test system: S. aureus VSSA (ATCC 6538); assay: MIC, broth microdilution, vancomycin-sensitive S. aureus (VSSA/MSSA, ATCC 6538); format: cell-based, Staphylococcus aureus; conditions: for MIC: Staphylococcus aureus VSSA, read-out: MIC; for MIC-fold improvement vs. vancomycin: VSSA, ratio of MIC of vancomycin and MIC of analogue
Summary of the method: as §1

MRSA KS2 = assay: MIC, broth microdilution, MRSA KS2; format: cell-based, Staphylococcus aureus; conditions: for MIC-fold improvement vs. vancomycin: MRSA KS2, ratio of MIC of vancomycin and MIC of analogue; for MIC: Staphylococcus aureus MRSA KS2, read-out: MIC
Summary of the method: as §1

MRSA KS6 = assay: MIC, broth microdilution, MRSA KS6; format: cell-based, Staphylococcus aureus; conditions: for MIC-fold improvement vs. vancomycin: MRSA KS6, ratio of MIC of vancomycin and MIC of analogue; for MIC: Staphylococcus aureus MRSA KS6, read-out: MIC
Summary of the method: as §1

E. faecalis VRE 29 = assay: MIC, broth microdilution, vancomycin-resistant E. faecalis VRE 29 (VanA); format: cell-based, Enterococcus faecalis; conditions: for MIC: Enterococcus faecalis VRE 29 (vancomycin-resistant), read-out: MIC; for MIC-fold improvement vs. vancomycin: VRE 29, ratio of MIC of vancomycin and MIC of analogue
Summary of the method: as §1

E. faecalis VRE 53 = assay: MIC, broth microdilution, vancomycin-resistant E. faecalis VRE 53 (VanA); format: cell-based, Enterococcus faecalis; conditions: for MIC: Enterococcus faecalis VRE 53 (vancomycin-resistant), read-out: MIC; for MIC-fold improvement vs. vancomycin: VRE 53, ratio of MIC of vancomycin and MIC of analogue
Summary of the method: as §1

S. aureus VISA/HIP5827 = assay: MIC, broth microdilution, vancomycin-intermediate S. aureus VISA HIP5827; format: cell-based, Staphylococcus aureus; conditions: for MIC: Staphylococcus aureus VISA/HIP5827, read-out: MIC; for MIC-fold improvement vs. vancomycin: VISA/HIP5827, ratio of MIC of vancomycin and MIC of analogue
Summary of the method: as §1

[7] = test system: human T-lymphocyte (CEM) cells; assay: Cytostatic activity, CEM cell proliferation; format: cell-based; conditions: mean ± SD of three experiments; highest concentration tested 250 µM; 3 days; read-out: Toxicity (IC50) CEM
Summary of the method: as §2

MRSA KS1 = assay: MIC, broth microdilution, MRSA KS1; format: cell-based, Staphylococcus aureus; conditions: for MIC-fold improvement vs. vancomycin: MRSA KS1, ratio of MIC of vancomycin and MIC of analogue; for MIC: Staphylococcus aureus MRSA KS1, read-out: MIC
Summary of the method: as §1

E. faecalis VRE 6 = assay: MIC, broth microdilution, vancomycin-resistant E. faecalis VRE 6 (VanA); format: cell-based, Enterococcus faecalis; conditions: for MIC: Enterococcus faecalis VRE 6 (vancomycin-resistant), read-out: MIC; for MIC-fold improvement vs. vancomycin: VRE 6, ratio of MIC of vancomycin and MIC of analogue
Summary of the method: as §1

Row | SMILES | MIC-fold improvement vs. vancomycin (MRSA KS89) | MIC (MRSA KS89) [µM] | MIC (E. faecalis VSE 1) [µM] | MIC-fold improvement vs. vancomycin (E. faecalis VSE 1) | IC50 [1] [µM] | IC50 [2] [µM] | MIC (E. faecalis VRE 37) [µM] | MIC-fold improvement vs. vancomycin [3] | MIC (S. aureus VRSA) [µM] | MIC-fold improvement vs. vancomycin (S. aureus VRSA) | IC50 [4] [µM] | MIC-fold improvement vs. vancomycin [5] | MIC [6] [µM] | MIC-fold improvement vs. vancomycin [6] | MIC-fold improvement vs. vancomycin (MRSA KS2) | MIC (MRSA KS2) [µM] | MIC-fold improvement vs. vancomycin (MRSA KS6) | MIC (MRSA KS6) [µM] | MIC (E. faecalis VRE 29) [µM] | MIC (E. faecalis VRE 53) [µM] | also measured
1 | CN[C@H](CC(C)C)C(=O)N[C@H]1C(=O)N[C@@H](CC(N)=O)C(=O)N[C@H]2C(=O)N[C@H]3C(=O)N[C@H](C(=O)N[C@H](C(=O)NCC(=O)Nc4ccc(Cl)cc4Cl)c4cc(O)cc(O)c4-c4cc3ccc4O)[C@H](O)c3ccc(c(Cl)c3)Oc3cc2cc(c3O[C@@H]2O[C@H](CO)[C@@H](O)[C@H](O)[C@H]2O[C@H]2C[C@](C)(N)[C@H](O)[C@H](C)O2)Oc2ccc(cc2Cl)[C@H]1O [Vanc-14] | 4 | 0.20 (≈ 0.33 µg/mL) | 0.20 (≈ 0.33 µg/mL) | 8 | 148 ± 6 | 153 ± 55 | 6.25 (≈ 10.3 µg/mL) | 29 | 3.13 (≈ 5.17 µg/mL) | 32 | 138 | 22 | 0.20 (≈ 0.33 µg/mL) | 4 | 4 | 0.20 (≈ 0.33 µg/mL) | 2 | 0.39 (≈ 0.644 µg/mL) | 3.13 (≈ 5.17 µg/mL) | 3.13 (≈ 5.17 µg/mL) | MIC-fold improvement vs. vancomycin (E. faecalis VRE 37): 128; MIC-fold improvement vs. vancomycin (E. faecalis VRE 53): 128; MIC (S. aureus VISA/HIP5827): 0.10 µM (≈ 0.165 µg/mL); MIC-fold improvement vs. vancomycin (S. aureus VISA/HIP5827): 64; IC50 [7]: 114 ± 18 µM; MIC-fold improvement vs. vancomycin (MRSA KS1): 2; MIC (MRSA KS1): 0.39 µM (≈ 0.644 µg/mL); MIC (E. faecalis VRE 6): 1.56 µM (≈ 2.57 µg/mL); MIC-fold improvement vs. vancomycin (E. faecalis VRE 6): 128
2 | CN[C@H](CC(C)C)C(=O)N[C@H]1C(=O)N[C@@H](CC(N)=O)C(=O)N[C@H]2C(=O)N[C@H]3C(=O)N[C@H](C(=O)N[C@H](C(=O)NCCNC(=O)/C=C/c4ccc(F)cc4)c4cc(O)cc(O)c4-c4cc3ccc4O)[C@H](O)c3ccc(c(Cl)c3)Oc3cc2cc(c3O[C@@H]2O[C@H](CO)[C@@H](O)[C@H](O)[C@H]2O[C@H]2C[C@](C)(N)[C@H](O)[C@H](C)O2)Oc2ccc(cc2Cl)[C@H]1O [Vanc-22] | 2 | 0.39 (≈ 0.639 µg/mL) | 0.39 (≈ 0.639 µg/mL) | 4 | 76 ± 11 | > 250 | 12.5 (≈ 20.5 µg/mL) | 7 | 3.13 (≈ 5.13 µg/mL) | 32 | 192 | 5.6 | 0.39 (≈ 0.639 µg/mL) | 2 | 2 | 0.39 (≈ 0.639 µg/mL) | 2 | 0.39 (≈ 0.639 µg/mL) | 12.5 (≈ 20.5 µg/mL) | 25 (≈ 41 µg/mL) | MIC [3]: 6.25 µM (≈ 10.2 µg/mL); MIC [5]: 6.25 µM (≈ 10.2 µg/mL); MIC-fold improvement vs. vancomycin (E. faecalis VRE 29): 32; MIC-fold improvement vs. vancomycin (E. faecalis VRE 53): 16; MIC (S. aureus VISA/HIP5827): 1.56 µM (≈ 2.56 µg/mL); MIC-fold improvement vs. vancomycin (S. aureus VISA/HIP5827): 4; IC50 [7]: > 250 µM; MIC-fold improvement vs. vancomycin (MRSA KS1): 2; MIC (MRSA KS1): 0.39 µM (≈ 0.639 µg/mL); MIC (E. faecalis VRE 6): 1.56 µM (≈ 2.56 µg/mL); MIC-fold improvement vs. vancomycin (E. faecalis VRE 6): 128
3 | CCCCC#Cc1ccc(/C=C/C(=O)NCCNC(=O)[C@H]2NC(=O)[C@H]3NC(=O)[C@H](NC(=O)[C@@H]4NC(=O)[C@H](CC(N)=O)NC(=O)[C@H](NC(=O)[C@@H](CC(C)C)NC)[C@H](O)c5ccc(c(Cl)c5)Oc5cc4cc(c5O[C@@H]4O[C@H](CO)[C@@H](O)[C@H](O)[C@H]4O[C@H]4C[C@](C)(N)[C@H](O)[C@H](C)O4)Oc4ccc(cc4Cl)[C@H]3O)c3ccc(O)c(c3)-c3c(O)cc(O)cc32)cc1 [Vanc-48] | 2 | 0.39 (≈ 0.664 µg/mL) | 0.78 (≈ 1.33 µg/mL) | 2 | > 250 | 142 ± 21 | 3.13 (≈ 5.33 µg/mL) | ≤ 58 | 1.56 (≈ 2.65 µg/mL) | 64 | 158 | up to 45 | 0.20 (≈ 0.34 µg/mL) | 4 | 4 | 0.20 (≈ 0.34 µg/mL) | 0.25 | 3.13 (≈ 5.33 µg/mL) | 3.13 (≈ 5.33 µg/mL) | 6.25 (≈ 10.6 µg/mL) | MIC-fold improvement vs. vancomycin (E. faecalis VRE 37): 128; MIC [3]: 0.78 µM (≈ 1.33 µg/mL); MIC-fold improvement vs. vancomycin ([3]; listed as Vanc- 48): 58; MIC [5]: 0.78 µM (≈ 1.33 µg/mL); MIC-fold improvement vs. vancomycin ([5]; listed as Vanc- 48): 45; MIC-fold improvement vs. vancomycin (E. faecalis VRE 29): 128; MIC-fold improvement vs. vancomycin (E. faecalis VRE 53): 64; MIC (S. aureus VISA/HIP5827): 1.56 µM (≈ 2.65 µg/mL); MIC-fold improvement vs. vancomycin (S. aureus VISA/HIP5827): 4; IC50 [7]: 83 ± 11 µM; MIC-fold improvement vs. vancomycin (MRSA KS1): >8; MIC (MRSA KS1): <0.10 µM; MIC (E. faecalis VRE 6): 1.56 µM (≈ 2.65 µg/mL); MIC-fold improvement vs. vancomycin (E. faecalis VRE 6): 128
